Laboratory results published in PubChem BioAssay AID2060610 (Molecular Pharmacology Branch, DTP, NCI, 2025).
“And” between values parts separate entries of the source, which are not always exact repeats. Identical values can stand only once.

Tested on: 616215-338-R-J1-PDC complex spheroids, viability % test/control
Experiment: Anticancer human tumor 616215-338-R-J1-PDC patient-derived colon adenocarcinoma cell line growth inhibition [CLK]
Settings: for viability, T/C: stronger effect = lower value; active = viability on the fitted dose curve at most 10% of control; inactive = the rest
Procedure, shortened: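 Multi-cell-type spheroids combined patient-derived tumor cells with HUVEC endothelial cells and human mesenchymal stem cells. Paired agents were dosed in half-log steps down from about clinical Cmax, or from 10 microM where Cmax was unknown.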

[1] = curve of first compound, second compound 0.0316 µM
[2] = curve of first compound, second compound 0.1 µM
[3] = curve of first compound, second compound 0.316 µM
[4] = curve of first compound, second compound 1 µM
[5] = curve of first compound, second compound 3.16 µM
[6] = curve of first compound, second compound 10 µM
[7] = second compound 0.0316 µM, first compound 0.00316 µM
[8] = second compound 0.0316 µM, first compound 0.01 µM
[9] = second compound 0.0316 µM, first compound 0.0316 µM
[10] = second compound 0.0316 µM, first compound 0.1 µM
[11] = second compound 0.0316 µM, first compound 0.316 µM
[12] = second compound 0.0316 µM, first compound 1 µM
[13] = second compound 0.1 µM, first compound 0.00316 µM
[14] = second compound 0.1 µM, first compound 0.01 µM
[15] = second compound 0.1 µM, first compound 0.0316 µM
[16] = second compound 0.1 µM, first compound 0.1 µM
[17] = second compound 0.1 µM, first compound 0.316 µM
[18] = second compound 0.1 µM, first compound 1 µM
[19] = second compound 0.316 µM, first compound 0.00316 µM
[20] = second compound 0.316 µM, first compound 0.01 µM
[21] = second compound 0.316 µM, first compound 0.0316 µM
[22] = second compound 0.316 µM, first compound 0.1 µM
[23] = second compound 0.316 µM, first compound 0.316 µM
[24] = second compound 0.316 µM, first compound 1 µM
[25] = second compound 1 µM, first compound 0.00316 µM
[26] = second compound 1 µM, first compound 0.01 µM
[27] = second compound 1 µM, first compound 0.0316 µM
[28] = second compound 1 µM, first compound 0.1 µM
[29] = second compound 1 µM, first compound 0.316 µM
[30] = second compound 1 µM, first compound 1 µM
[31] = second compound 3.16 µM, first compound 0.00316 µM
[32] = second compound 3.16 µM, first compound 0.01 µM
[33] = second compound 3.16 µM, first compound 0.0316 µM
[34] = second compound 3.16 µM, first compound 0.1 µM
[35] = second compound 3.16 µM, first compound 0.316 µM
[36] = second compound 3.16 µM, first compound 1 µM
[37] = second compound 10 µM, first compound 0.00316 µM
[38] = second compound 10 µM, first compound 0.01 µM
[39] = second compound 10 µM, first compound 0.0316 µM
[40] = second compound 10 µM, first compound 0.1 µM
[41] = second compound 10 µM, first compound 0.316 µM
[42] = second compound 10 µM, first compound 1 µM
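Also: spheroids exposed to agents for 7 days.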
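For viability, T/C in this document: 100% = DMSO vehicle wells.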

CCN1CCN(Cc2ccc(Nc3ncc(F)c(-c4cc(F)c5nc(C)n(C(C)C)c5c4)n3)nc2)CC1 + CNC(=O)c1ccc(Nc2nc(OC3CCCC3)c3c(-c4ccc5nc(C)oc5c4)c[nH]c3n2)c(OC)c1
928 nM: IC50 [1]
357 nM: IC50 [5]
inactive: viability, T/C [7] 83% | viability, T/C [8] 93.2% | viability, T/C [9] 95.5% | viability, T/C [10] 137% | viability, T/C [11] 130% | viability, T/C [12] 46% | viability, T/C [13] 51.6% | viability, T/C [14] 55% | viability, T/C [15] 56.3% | viability, T/C [16] 58% | viability, T/C [17] 48.1% | viability, T/C [18] 26.7% | viability, T/C [19] 45.5% | viability, T/C [20] 49.2% | viability, T/C [21] 53.5% | viability, T/C [22] 50.3% | viability, T/C [23] 47.9% | viability, T/C [24] 28.2% | viability, T/C [25] 51.8% | viability, T/C [26] 49.1% | viability, T/C [27] 59.6% | viability, T/C [28] 55% | viability, T/C [29] 39.5% | viability, T/C [30] 28.6% | viability, T/C [31] 47.4% | viability, T/C [32] 50.3% | viability, T/C [33] 53% | viability, T/C [34] 54.1% | viability, T/C [35] 61.2% | viability, T/C [36] 22.7% | viability, T/C [37] 41.6% | viability, T/C [38] 46.8% | viability, T/C [39] 58.5% | viability, T/C [40] 52.2% | viability, T/C [41] 46% | viability, T/C [42] 29.2%
136 nM: IC50 [4]
285 nM: IC50 [2]
< 3.16 nM: IC50 [3] | IC50 [6]

COc1cccc2c1C(=O)c1c(O)c3c(c(O)c1C2=O)CC(O)(C(=O)CO)CC3OC1CC(N)C(O)C(C)O1 (stereo unspecified)
0.74% and 0.78%: viability, T/C (compound 3.16 µM)
inactive: viability, T/C (compound 0.0316 µM) 102% and 112% | viability, T/C (compound 0.1 µM) 45.9% and 64.2% | viability, T/C (compound 0.316 µM) 40.4% and 49.8% | viability, T/C (compound 1 µM) 24% and 41.3%
active: viability, T/C (compound 10 µM) 0.16% and 0.24%
142 nM and 299 nM: IC50 (curve of compound)

CCN1CCN(Cc2ccc(Nc3ncc(F)c(-c4cc(F)c5nc(C)n(C(C)C)c5c4)n3)nc2)CC1 + CN1CCN(c2cc(C(=O)Nc3cc4cc(-c5cnn(C)c5)ccc4cn3)ccn2)CC1
951 nM: IC50 [1]
active: viability, T/C [25] 0.15% | viability, T/C [26] 0.73% | viability, T/C [27] 1.7% | viability, T/C [28] 0.2% | viability, T/C [29] 2.07% | viability, T/C [30] 1.73% | viability, T/C [31] 0.15% | viability, T/C [32] 0.16% | viability, T/C [33] 0.15% | viability, T/C [34] 0.13% | viability, T/C [35] 0.76% | viability, T/C [36] 0.18% | viability, T/C [37] 0.2% | viability, T/C [38] 0.19% | viability, T/C [39] 2.8% | viability, T/C [40] 0.2% | viability, T/C [41] 3.09% | viability, T/C [42] 0.2%
inactive: viability, T/C [7] 111% | viability, T/C [8] 105% | viability, T/C [9] 112% | viability, T/C [10] 149% | viability, T/C [11] 175% | viability, T/C [12] 46.2% | viability, T/C [13] 114% | viability, T/C [14] 131% | viability, T/C [15] 116% | viability, T/C [16] 154% | viability, T/C [17] 120% | viability, T/C [18] 41.6% | viability, T/C [19] 32.6% | viability, T/C [20] 32.6% | viability, T/C [21] 37.6% | viability, T/C [22] 48.6% | viability, T/C [23] 42.6% | viability, T/C [24] 12.8%
885 nM: IC50 [2]
< 3.16 nM: IC50 [3] | IC50 [4] | IC50 [5] | IC50 [6]
